Read-outs that look alike come from different tables or passages of the source.
What was measured:
[1] = target: T1, Human HDAC1 (Homo sapiens, UniProt Q13547); assay: In vitro HDAC1 inhibition, fluorogenic peptide substrate; format: biochemical; conditions: No preincubation; read-out: IC50 (μM) HDAC-1
T1 construct: Full length with C-terminal GST tag, MW=79.9 kDa; GST (C); purchased BioMol SE-456; host or cells: baculovirus / Sf9 cells
Procedure: (§1) In Vitro Inhibitory Activity of Histone Deacetylase: Human Isoforms HDAC1, 2, 3, 4, 5, 6, 7, 8, 9, 10 and 11 and HeLa Cell Line Nuclear Extract (IC50 Data)
(§2) All HDAC assays were performed using acetylated AMC-labeled peptide substrate: • Substrate for isoforms HDAC1, 2, 3, 6, 10, 11 and HeLa nuclear extract assays: Acetylated fluorogenic peptide from p53 residues 379-382 (RHKKAc). • Substrate for isoforms HDAC 4, 5, 7, 9: Fluorogenic Boc-L-Lys(ε-trifluoroacetyl)-AMC. • Substrate for HDAC8 assays: Acetylated fluorogenic peptide from p53 residues 379-382 (RHKAcKAc).
(§3) 50 μM of substrate peptide (see ‘substrate peptides’ section above) and an optimal concentration of the corresponding enzyme (see ‘enzymes’ section above) in the assay buffer and 1% final concentration of DMSO were incubated in the presence of gradient concentrations of inhibitors (10-dose IC50 mode with 3-fold serial dilution) at 30° C. for 2 h. The reactions were carried out in a 96-well microplate for fluorometry in a 50 μl reaction volume. After the deacetylation reaction, Fluor-de-Lys-Developer (BioMol Cat. # KI-105) was added to each well to digest the deacetylated substrate, thus producing the fluorescent signal. The reaction was allowed to develop for 45 minutes at 30° C. with 5% CO2; then the fluorescent signal was measured with an excitation wavelength at 360 nm and an emission wavelength at 460 nm in a microplate-reading fluorometer (GeminiXS; Molecular Devices, Sunnyvale, Calif.). A curve of Deacetylated Standard (Biomol, Cat. # KI-142; made from 100 μM with 1:2 dilution and 10-doses, 6 μl) allowed the conversion of fluorescent signal into micromoles of deacetylated product. All experiments were performed in triplicate. IC50 was calculated by fitting the experimental data to a dose-response curve. DMSO was used as negative control; Trichostatin A (Biomol Cat. # GR-309) was used as positive control inhibitor.

[2] = target: T2, Human HDAC2 (Homo sapiens, UniProt Q92769); assay: In vitro HDAC2 inhibition, fluorogenic peptide substrate; format: biochemical; conditions: read-out: IC50 (μM) HDAC-2
T2 construct: Full length with C-terminal His tag, MW=60 kDa; His (C); purchased BioMol SE-500; host or cells: baculovirus / Sf9 cells
T2 sequence (Q92769 whole entry): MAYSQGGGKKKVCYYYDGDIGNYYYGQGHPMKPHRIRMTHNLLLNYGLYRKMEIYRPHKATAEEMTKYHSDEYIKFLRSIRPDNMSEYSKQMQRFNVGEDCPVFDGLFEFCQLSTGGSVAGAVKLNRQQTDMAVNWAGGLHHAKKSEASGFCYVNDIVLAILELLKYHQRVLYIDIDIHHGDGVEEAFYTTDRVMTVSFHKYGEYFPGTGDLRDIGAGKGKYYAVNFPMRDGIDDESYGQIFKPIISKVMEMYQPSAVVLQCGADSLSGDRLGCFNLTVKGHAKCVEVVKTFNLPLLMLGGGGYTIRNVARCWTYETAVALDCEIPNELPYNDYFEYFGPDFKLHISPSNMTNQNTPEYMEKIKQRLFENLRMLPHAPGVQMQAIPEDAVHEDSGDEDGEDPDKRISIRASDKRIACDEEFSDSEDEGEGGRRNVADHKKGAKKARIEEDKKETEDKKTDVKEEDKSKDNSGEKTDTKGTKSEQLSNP
Procedure: as §1, §2, §3

[3] = tested on: T3, Nuclear Extract from HeLa Cells; assay: HeLa nuclear extract HDAC activity inhibition; format: biochemical, human
T3 construct: 25 ng/μl Nuclear Extract from HeLa Cells: Prepared by high salt extraction of HeLa nuclei (human cervical cancer cell line)
Procedure: as §1, §2
as §3, with “50 μM of substrate peptide (see ‘substrate peptides’ section above) and an optimal concentration of the corresponding enzyme (see ‘enzymes’ section above) in the assay buffer and 1% final concentration of DMSO were incubated in the presence of gradient concentrations of inhibitors (10-dose IC50 mode with 3-fold serial dilution) at 30° C. for 2 h.” left out

[4] = target: T1, Human HDAC1; assay: In vitro HDAC1 inhibition, fluorogenic peptide substrate; format: biochemical; conditions: 4 h preincubation; read-out: IC50 (μM) HDAC-1
[5] = target: T4, Human HDAC6 (Homo sapiens, UniProt Q9UBN7); assay: In vitro HDAC6 inhibition, fluorogenic peptide substrate; format: biochemical; conditions: No preincubation; read-out: IC50 (μM) HDAC-6
T4 construct: Full length with N-terminal GST tag, MW=159 kDa; GST (N); purchased BioMol SE-508; host or cells: baculovirus / Sf9 cells
T4 sequence (Q9UBN7 1-1215): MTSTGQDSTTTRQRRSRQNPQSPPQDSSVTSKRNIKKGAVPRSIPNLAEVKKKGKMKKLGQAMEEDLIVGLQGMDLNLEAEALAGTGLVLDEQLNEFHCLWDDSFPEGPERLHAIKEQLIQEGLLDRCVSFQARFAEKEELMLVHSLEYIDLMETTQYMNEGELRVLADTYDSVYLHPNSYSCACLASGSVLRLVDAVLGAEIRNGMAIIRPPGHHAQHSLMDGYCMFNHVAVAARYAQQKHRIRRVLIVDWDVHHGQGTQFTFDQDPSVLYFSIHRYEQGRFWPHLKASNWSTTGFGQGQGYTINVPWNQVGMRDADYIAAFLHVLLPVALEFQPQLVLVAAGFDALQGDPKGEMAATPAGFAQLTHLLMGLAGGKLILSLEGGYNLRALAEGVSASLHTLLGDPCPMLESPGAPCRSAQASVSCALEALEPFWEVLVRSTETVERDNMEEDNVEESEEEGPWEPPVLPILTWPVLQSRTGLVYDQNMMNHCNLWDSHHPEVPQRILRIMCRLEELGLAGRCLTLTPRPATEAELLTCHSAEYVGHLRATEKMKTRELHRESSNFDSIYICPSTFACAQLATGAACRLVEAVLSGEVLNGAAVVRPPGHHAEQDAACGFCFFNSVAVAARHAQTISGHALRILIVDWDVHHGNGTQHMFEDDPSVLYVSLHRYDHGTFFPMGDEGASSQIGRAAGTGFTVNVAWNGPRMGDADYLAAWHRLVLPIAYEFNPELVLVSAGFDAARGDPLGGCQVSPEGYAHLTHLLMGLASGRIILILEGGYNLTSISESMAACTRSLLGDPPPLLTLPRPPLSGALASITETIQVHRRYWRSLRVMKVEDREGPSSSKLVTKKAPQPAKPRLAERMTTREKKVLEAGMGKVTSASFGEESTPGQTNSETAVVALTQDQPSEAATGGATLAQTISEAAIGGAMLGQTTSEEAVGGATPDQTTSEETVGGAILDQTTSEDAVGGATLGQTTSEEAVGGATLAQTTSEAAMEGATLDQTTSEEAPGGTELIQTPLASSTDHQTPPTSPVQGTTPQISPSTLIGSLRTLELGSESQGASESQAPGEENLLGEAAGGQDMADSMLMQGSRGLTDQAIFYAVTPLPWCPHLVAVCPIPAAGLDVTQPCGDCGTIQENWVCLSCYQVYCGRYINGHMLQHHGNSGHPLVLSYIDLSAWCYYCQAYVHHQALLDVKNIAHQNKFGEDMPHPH
Procedure: as §1, §2, §3

T1 sequence (Q13547 whole entry): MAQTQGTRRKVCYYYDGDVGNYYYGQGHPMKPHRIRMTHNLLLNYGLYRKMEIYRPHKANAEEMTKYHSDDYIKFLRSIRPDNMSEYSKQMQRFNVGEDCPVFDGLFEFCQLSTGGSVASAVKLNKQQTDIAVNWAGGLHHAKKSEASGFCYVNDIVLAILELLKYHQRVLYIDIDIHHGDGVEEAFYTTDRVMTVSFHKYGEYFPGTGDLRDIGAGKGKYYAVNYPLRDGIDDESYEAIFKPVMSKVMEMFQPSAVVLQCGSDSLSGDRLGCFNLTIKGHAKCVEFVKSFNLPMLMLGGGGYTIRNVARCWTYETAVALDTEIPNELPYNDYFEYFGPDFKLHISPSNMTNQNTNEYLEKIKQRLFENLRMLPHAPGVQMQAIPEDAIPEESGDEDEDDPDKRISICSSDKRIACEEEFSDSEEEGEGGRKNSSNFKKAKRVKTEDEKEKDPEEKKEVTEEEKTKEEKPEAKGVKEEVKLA

| SMILES | IC50 [1] [µM] | IC50 ([2]; 4 h preincubation) [µM] | IC50 ([2]; No preincubation) [µM] | IC50 ([3]; 4 h preincubation) [µM] | IC50 ([3]; No preincubation) [µM] | melting point [°C] | IC50 [4] [µM] | IC50 [3] [µM] | IC50 [5] [µM] |
| --- | --- | --- | --- | --- | --- | --- | --- | --- | --- |
| Nc1ncc(-c2ccccc2)cc1NC(=O)CCCCCCNc1c2c(nc3ccccc13)CCCC2 [Example 20, N-(2-amino-5-phenylpyridin-3-yl)-7-[(1,2,3,4-tetrahydroacridin-9-yl)amino]heptanamide] | 594 | > 50 | > 50 | 109 | > 50 | 49 to 50 | > 50 |  |  |
| O=C(NO)c1ccc(CNc2c3c(nc4ccccc24)CCCC3)cc1 [Example 9, N-hydroxy-4-{[(1,2,3,4-tetrahydroacridin-9-yl)amino]methyl}benzamide] |  |  |  |  |  | 204 to 205 |  | 0.9 |  |
| Nc1ccc(-c2cccnc2)cc1NC(=O)CCCCCCNc1c2c(nc3ccccc13)CCCC2 [Example 21, N-[2-amino-5-(pyridin-3-yl)phenyl]-7-[(1,2,3,4-tetrahydroacridin-9-yl)amino]heptanamide] | 3.97 | 2.79 | 3.37 | 30.7 | 78.1 |  | 8.55 |  |  |
| Cc1ccc(NC(=O)CCCCCCNc2c3c(nc4ccccc24)CCCC3)c(N)c1 [Example 12, N-(2-amino-4-methylphenyl)-7-[(1,2,3,4-tetrahydroacridin-9-yl)amino]heptanamide] | > 50 |  | > 50 |  |  | 63 to 64 |  |  | > 50 |
| Nc1ccc(-c2ccc3ccccc3c2)cc1NC(=O)CCCCCCNc1c2c(nc3ccccc13)CCCC2 [Example 19, N-[2-amino-5-(naphthalen-2-yl)phenyl]-7-[(1,2,3,4-tetrahydroacridin-9-yl)amino]heptanamide] | > 50 | 72.7 | > 50 | 39.3 | 17.7 | 100 to 101 | 139 |  |  |
| O=C(CCCCCCNc1c2c(nc3c(O)cccc13)CCCC2)NO [Example 6, N-hydroxy-7-[(5-hydroxy-1,2,3,4-tetrahydroacridin-9-yl)amino]heptanamide] |  |  |  |  |  | 73 |  |  |  |
| Cc1ccc(N)c(NC(=O)CCCCCCNc2c3c(nc4ccccc24)CCCC3)c1 [Example 13, N-(2-amino-5-methylphenyl)-7-((1,2,3,4-tetrahydroacridin-9-yl)amino)heptanamide] | 57.3 | 54.3 | 62.9 |  |  | 204 to 205 | > 50 |  | > 50 |

Results, then the compound that gave them:

| IC50 [1] [µM] | IC50 ([2]; 4 h preincubation) [µM] | IC50 ([2]; No preincubation) [µM] | IC50 ([3]; 4 h preincubation) [µM] | IC50 ([3]; No preincubation) [µM] | melting point [°C] | IC50 [4] [µM] | IC50 [3] [µM] | IC50 [5] [µM] | SMILES |
| --- | --- | --- | --- | --- | --- | --- | --- | --- | --- |
| 250 | 76 | 188 | 73.6 | 84.1 | 53 to 54 | 118 |  |  | Cc1cccc(-c2ccc(N)c(NC(=O)CCCCCCNc3c4c(nc5ccccc35)CCCC4)c2)c1 [Example 17, N-(4-amino-3′-methyl-[1,1′-biphenyl]-3-yl)-7-[(1,2,3,4-tetrahydroacridin-9-yl)amino]heptanamide] |
|  |  |  |  |  | 75 to 76 |  |  |  | Nc1ccc(-c2ccccc2)cc1NC(=O)CCCCCNc1c2c(nc3ccccc13)CCCC2 [Example 16, N-(4-Amino-[1,1′-biphenyl]-3-yl)-6-[(1,2,3,4-tetrahydroacridin-9-yl)amino]hexanamide] |
| 1.26 | 0.079 | 1.7 | 3.99 | 4.68 | 101 to 102 | 1.48 |  | 13.2 | Nc1ccc(-c2ccccc2)cc1NC(=O)CCCCCCNc1c2c(nc3ccccc13)CCCC2 [Example 15, N-(4-amino-[1,1′-biphenyl]-3-yl)-7-[(1,2,3,4-tetrahydroacridin-9-yl)amino]heptanamide] |
| > 50 | > 50 | > 50 | > 50 | > 50 | 75 to 76 | > 50 |  |  | CC(C)(C)c1ccc(N)c(NC(=O)CCCCCCNc2c3c(nc4ccccc24)CCCC3)c1 [Example 14, N-[2-amino-5-(tert-butyl)phenyl]-7-[(1,2,3,4-tetrahydroacridin-9-yl)amino]heptanamide] |
| 46.7 | 65.9 | > 50 | 25.5 | 429 | 55 to 56 | 48.1 |  |  | CC(C)(C)c1ccc(-c2ccc(N)c(NC(=O)CCCCCCNc3c4c(nc5ccccc35)CCCC4)c2)cc1 [Example 18, N-{4-amino-4′-(tert-butyl)-[1,1′-biphenyl]-3-yl}-7-[(1,2,3,4-tetrahydroacridin-9-yl)amino]heptanamide] |
